The test system of assay [1] is phosphoCTD (S2) in HCT116 cells. The assay is described as follows: Phospho-carboxyl terminal domain (Ser2) p-CTD (S2) cell based Acumen assay. The following applies: read-out: relative IC50 for phosphoCTD (S2). On the procedure:
HCT116 cells (ATCC CCL-247) are cultured in McCoy’s 5 Å Medium Modified media supplemented with 10% FBS, 1% NaPyr, and 1% Pen/Strep and plated (prior to becoming 70% confluent) in 96-well flat-bottom plates at a density of 5,000 cells per well in 100 µL volume. The cells are then incubated overnight in a cell culture incubator (5% CO2, 95% Relative Humidity (RH) and 37° C.) and allowed to attach to the plate. The following morning the cells are dosed with compounds. Compound inhibitors are first solubilized at 60 µM in culture medium containing 0.6% DMSO. Subsequently compound serial dilutions (1:3) are prepared over a 60 µM to 0.003 µM range. Cells are dosed with the addition of 50 µL from serial dilution plate to assay plate containing cells attached with 100 µL of media producing a final DMSO concentration of 0.2% with a final compound concentration dose range between 20 and 0.001 µM. For max point media containing 0.2% of DMSO is used and for min point, a reference compound diluted at 0.83 µM final concentration in the growth media containing 0.2% DMSO is used. After dosing with compounds, the cell plates are incubated at 37° C. and 5% CO2 for 4 hours. The growth media is removed carefully and the cells are fixed by adding 100 µL of 4% para-formaldehyde for 30 minutes at RT. Cells are washed once with PBS and incubated with 100 µL of cold MeOH for 15 minutes at RT for cell permeation. Cells are washed twice with PBS (100 µL/each) and blocked with 100 µL/well of 1% BSA/PBS for 30 minutes at RT. 50 µL of 1:1000 primary antibody (Anti-phospho CTD Ser2 Abcam, cat# ab5095-100) dilution in 1% BSA/PBS are added per well, the plates are sealed and incubated overnight at 4° C.
The following day cells are washed three times with PBS (100 µL/well) and incubated with 50 µL/well of secondary antibody (1:2000 dilution, Goat anti-rabbit IgM ALEXA FLUOR™ 488) in PBS for 1 hour at RT. After washing 3X with PBS (100 µL/well), 100 µL of 50 µg/mL RNAase and 1:1000 propidium iodide dilution in PBS are added per well. Plates are sealed and incubated 1 hour at RT on the bench (preserved from light). Plates are analyzed on Acumen on FL2 (mean intensity) and FL3 (total intensity). Fluorescence plates are scanned with ACUMEN EXPLORER™ [Laser-scanning fluorescence microplate cytometer manufactured by TTP LABTECH LTD] to measure anti-phospho-carboxyl terminal domain at Serine 2 (pCTD). Image analysis is based on cellular fluorescent signals for identifying positive cells. pCTD (S2) positive cells are identified by mean intensity at 500-530 above the threshold. Total intensity at 575-640 from propidium iodide/DNA is used to identify individual cells. Assay output is % pCTD positive cells.
The IC50 is determined by curve fitting to a four parameter logistic for each output using GENE DATA™.

A further assay relates to cMyc in HCT116 cells. The assay is described as follows: cMyc cell based Acumen assay. Particulars: read-out: Relative IC50 for cMyc. On the procedure: HCT116 cells (ATCC CCL-247) are cultured in McCoy’s 5 Å Medium Modified media supplemented with 10% FBS, 1% NaPyr, and 1% Pen/Strep and plated (prior to becoming 70% confluent) in 96-well flat-bottom plates at a density of 5,000 cells per well in 100 µL volume. The cells are then incubated overnight in a cell culture incubator (5% CO2, 95% Relative Humidity (RH), and 37° C.) and allowed to attach to the plate. The following morning the cells are dosed with compounds. Compound inhibitors are solubilized at 60 µM in culture medium containing 0.6% DMSO. Subsequently, compound serial dilutions (1:3) are prepared over a 60 µM to 0.003 µM range. Cells are dosed with the addition of 50 µL from serial dilution plate to assay plate containing cell attached with 100 µL of media producing a final DMSO concentration of 0.2% with a final compound concentration dose range between 20 µM and 0.001 µM. For max point media containing 0.2% of DMSO is used and for min point, a reference compound diluted at 0.83 µM final concentration in the growth media containing 0.2% DMSO is used. After dosing with compounds, the cell plates are incubated at 37° C. and 5% CO2 for 4 hours. Growth media is removed carefully and the cells are fixed by adding 100 µL of 4% para-formaldehyde for 30 minutes at RT. Cell are washed once with PBS and incubated with 100 µL of cold MeOH for 15 minutes at RT for cell permeation. Again cell are washed twice with PBS (100 µL/each) and blocked with 100 µL/well of 1% BSA/PBS for 30 minutes at RT. 50 µL of 1:1000 primary antibody (Anti-c-Myc antibody [Y69] Abcam cat# ab32072) dilution in 1% BSA/PBS are added per well, the plates sealed and incubated overnight at 4° C. The following day cells are washed three times with PBS (100 µL/well) and incubated with 50 µL/well of secondary antibody (1:2000 dilution, Goat anti-rabbit IgM ALEXA FLUOR™ 488) in PBS for 1 hour at RT. After wash 3× with PBS (100 µL/well), 100 µL of 50 µg/mL RNAase and 1:1000 propidium iodide (Invitrogene) dilution in PBS are added per well. Plates are sealed and incubated for 1 hour at RT on the bench (preserved from light). Plates are analyzed on Acumen on FL2 (mean intensity), and FL3 (total intensity). Fluorescence Plates are scanned with ACUMEN EXPLORER™ [Laser-scanning fluorescence microplate cytometer manufactured by TTP LABTECH LTD] to measure anti-phospho-carboxyl terminal domain at Serine 5 (pCTD). Image analysis is based on cellular fluorescent signals for identifying positive cells. pCTD (S5) positive cells are identified by mean intensity at 500-530 above the threshold. Total intensity at 575-640 from propidium iodide/DNA is used to identify individual cells. Assay output is % pCTD positive cells. The IC50 is determined by curve fitting to a four parameter logistic for each output using GENE DATA™.

A further assay has as its target CDK7/CyclinH/Mat1 (Homo sapiens, UniProt P50613). The assay is described as follows: Biochemical assay for inhibition of CDK7/CyclinH/MAT1 (radiolabel filter binding). Particulars: 100 µM ATP.
Setting [2] is: IC50 after 3 hours of preincubation of CDK7 enzyme, 3 hours preincubation.
The mark [3] stands for this setting: IC50 in CDK7 without preincubation, no preincubation of enzyme with compound.

Read-outs that look alike come from different tables or passages of the source.

CDK7/CyclinH/Mat1, sequence (P50613 whole entry): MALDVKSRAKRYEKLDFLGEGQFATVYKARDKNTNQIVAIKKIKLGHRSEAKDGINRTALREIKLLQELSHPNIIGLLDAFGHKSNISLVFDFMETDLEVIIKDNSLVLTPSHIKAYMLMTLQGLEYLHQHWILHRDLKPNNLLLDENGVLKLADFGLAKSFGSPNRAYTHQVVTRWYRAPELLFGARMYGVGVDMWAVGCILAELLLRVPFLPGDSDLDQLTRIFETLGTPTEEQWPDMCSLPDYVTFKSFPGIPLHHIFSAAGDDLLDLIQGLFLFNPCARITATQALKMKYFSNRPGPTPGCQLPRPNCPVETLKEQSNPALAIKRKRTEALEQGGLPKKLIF
CDK7/CyclinH/Mat1, sequence (P51946 whole entry partner): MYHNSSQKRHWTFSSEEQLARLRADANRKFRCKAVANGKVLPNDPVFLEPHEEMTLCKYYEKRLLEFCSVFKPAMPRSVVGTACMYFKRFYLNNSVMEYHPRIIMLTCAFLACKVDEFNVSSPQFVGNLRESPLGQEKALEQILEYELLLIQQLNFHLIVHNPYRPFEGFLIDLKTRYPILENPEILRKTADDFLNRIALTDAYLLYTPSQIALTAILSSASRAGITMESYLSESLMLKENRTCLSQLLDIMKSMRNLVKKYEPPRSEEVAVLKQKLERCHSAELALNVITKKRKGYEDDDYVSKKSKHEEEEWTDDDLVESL
CDK7/CyclinH/Mat1, sequence (P51948 whole entry partner): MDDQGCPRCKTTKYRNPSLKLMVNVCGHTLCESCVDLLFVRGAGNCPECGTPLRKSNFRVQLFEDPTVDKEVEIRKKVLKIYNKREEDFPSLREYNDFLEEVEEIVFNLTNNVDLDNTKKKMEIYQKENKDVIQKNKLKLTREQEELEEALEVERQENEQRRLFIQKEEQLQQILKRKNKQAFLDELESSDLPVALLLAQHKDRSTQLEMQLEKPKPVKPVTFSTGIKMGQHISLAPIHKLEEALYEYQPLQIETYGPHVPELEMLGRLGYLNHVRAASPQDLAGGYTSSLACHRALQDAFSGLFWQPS
Experimental for CDK7/CyclinH/Mat1: The purpose of these assays is to measure the ability of the compounds described herein to inhibit CDK7/CyclinH/Mat1 complex kinase activity. […] All ligands, solvents, and reagents employed in the following assays are readily available from commercial sources, or can be readily synthesized by one skilled in the art. The IC50 determination for CDK7 and CDK9 are determined as follows.
The IC50 activity of the compounds described herein is determined using radiolabel filter binding (FB) assays using the purified human recombinant enzyme in the presence of ATP//[^33P]ATP and peptide substrate. The ATP concentrations chosen are at or near the enzyme Km for ATP.
Reactions are carried out in 96 well polystyrene plates in a final volume of 25 µL per well. 5 µL of test compound in 20% DMSO, 10 µL of substrate solution (ATP/33PATP and CDK7/9 tide), and 10 µL of enzyme solution are mixed. […] The enzyme solution is prepared for a final concentration of 1 nM CDK7/CyclinH/Mat1 enzyme [Proqinase 0366-0360-4 Lot 002)] diluted in kinase buffer. Test compounds are serially diluted 1:3 in 20% DMSO to create a 10 point curve at a starting concentration of 20 µM. 20% DMSO buffer alone without test compound is employed as high control (full activity in the absence of any inhibitor), 500 mM EDTA is used to determine the level of background in the absence of enzyme activity (low control). After mixing 5 µL of compounds with 10 µL of enzyme solution, the plate is incubated for 0 or 180 minutes at 22° C. After that time, the reaction is initiated by the addition of 10 µL substrate solution and incubated for 50 minutes at 22° C. The reaction is terminated by the addition of 80 µL of cold 10% orthophosphoric solution. The Filter Plates (opaque, non-sterile filter plates) are prewashed with 10 µL of 10% orthophosphoric solution to each well. 100 µL of the mixture are transferred to a phosphocellulose filter and incubated at room temperature for 45 minutes. Filter plates are washed with 200 µL 0.5 % orthophosphoric acid 3 times on a filter plate processor. Incorporation of 33Pi (counting of “cpm”) is determined by adding 80 µL of MICROSCINT™ to each well and read on a counter after an hour. Data is processed through a [sequence] [sequence]Ⓡ tool. Data are analyzed using a 4-parameter nonlinear logistic equation (four-parameter logistic concentration-response curve): Y = bot + [(top-bot)/1+(x/ IC50)slope] where Y = % inhibition, X = concentration yielding y% inhibition, Bottom = minimum value of y attained by curve, Top = maximum value of y attained by curve and Slope = steepness of curve at IC50. %Inh = [(median Max- x/ median Max - median Min)] . 100 IC50: concentration of compound that reduces a given response (ligand binding, enzyme response) by 50%.

The term IC50 denotes the concentration that gives 50% inhibition. Turning to `C=CC(=O)N1CCO[C@H](CN2CCC(Nc3cc(C(C)F)cn4c(C(C)C)cnc34)CC2)C1` (single isomer, unassigned) [Example 2], the IC50 in assay [1] (4 hours) was 6360 nM; in the assay with cMyc in HCT116 cells (4 hours), 94.7 nM; at CDK7/CyclinH/Mat1 (setting [2]), 26.6 nM; on CDK7/CyclinH/Mat1 (setting [3]), 256 nM.

In the case of `C=CC(=O)N1CCO[C@H](CN2CCC(Nc3cc(C(C)O)cn4c(C(C)C)cnc34)CC2)C1` (single isomer, unassigned) [Example 4], the IC50 was 3710 nM in assay [1] (4 hours), 38 nM with cMyc in HCT116 cells (4 hours), 14.3 nM at CDK7/CyclinH/Mat1 (setting [2]) and 155 nM at CDK7/CyclinH/Mat1 (setting [3]).

Regarding `C=CC(=O)N1CCO[C@H](CN2CCC(Nc3cc(C(C)O)cn4c(C(C)C)cnc34)CC2)C1` (single isomer, unassigned) [Example 5], the IC50 in assay [1] (4 hours) is 7790 nM; in the assay on cMyc in HCT116 cells (4 hours) it was 140 nM; on CDK7/CyclinH/Mat1 (setting [2]), 41.5 nM; on CDK7/CyclinH/Mat1 (setting [3]), 367 nM.

As to `C=CC(=O)N1CCO[C@H](CN2CCC(Nc3cc(C(C)F)cn4c(C(C)C)cnc34)CC2)C1` (single isomer, unassigned) [Example 1], the IC50 in assay [1] (Homo sapiens, HCT-116, 4 h) stood at 5730 nM; in the assay with cMyc in HCT116 cells (Homo sapiens, HCT-116, 4 h), 82 nM; at CDK7/CyclinH/Mat1 (setting [2]), 14.3 nM; on CDK7/CyclinH/Mat1 (setting [3]), 123 nM.

Regarding `C=CC(=O)N1CCO[C@H](CN2CCC(Nc3cc(C(F)(F)F)cn4c(C(C)C)cnc34)CC2)C1` [Example 8, 1-[(2R)-2-[[4-[[3-isopropyl-6-(trifluoromethyl)imidazo[1,2-a]pyridin-8-yl]amino]-1-piperidyl]methyl]morpholin-4-yl]prop-2-en-1-one], the concentration for half-maximal inhibition (IC50) in assay [1] (Homo sapiens, HCT-116, 4 h) was 2590 nM; in the assay with cMyc in HCT116 cells (Homo sapiens, HCT-116, 4 h), 24.5 nM; on CDK7/CyclinH/Mat1 (setting [2]), 5.74 nM; on CDK7/CyclinH/Mat1 (setting [3]), 65.6 nM.

Regarding `[2H]CC([2H])(C)c1cnc2c(NC3CCN(C[C@@H]4CN(C(=O)C=C)CCO4)CC3)cc(C(F)(F)F)cn12` (mixture of isomers) [Example 7, 1-[(2R)-2-[[4-[[3-[rac-1,2-dideuterio-1-methyl-ethyl]-6-(trifluoromethyl)imidazo[1,2-a]pyridin-8-yl]amino]-1-piperidyl]methyl]morpholin-4-yl]prop-2-en-1-one], the IC50 in assay [1] (Homo sapiens, HCT-116, 4 h) was determined as 2920 nM; in the assay with cMyc in HCT116 cells (Homo sapiens, HCT-116, 4 h), 13.8 nM; at CDK7/CyclinH/Mat1 (setting [2]), 6.25 nM; at CDK7/CyclinH/Mat1 (setting [3]) it was 84.5 nM.

Take `[2H]C([2H])=C([2H])C(=O)N1CCO[C@H](CN2CCC(Nc3cc(C(F)(F)F)cn4c(C(C)C)cnc34)CC2)C1` [Example 6, 2,3,3-trideuterio-1-[(2R)-2-[[4-[[3-isopropyl-6-(trifluoromethyl)imidazo[1,2-a]pyridin-8-yl]amino]-1-piperidyl]methyl]morpholin-4-yl]prop-2-en-1-one]: the IC50 turned out to be 3790 nM in assay [1] (Homo sapiens, HCT-116, 4 h); 7.91 nM in the assay on cMyc in HCT116 cells (Homo sapiens, HCT-116, 4 h); 3.96 nM on CDK7/CyclinH/Mat1 (setting [2]); 67.4 nM on CDK7/CyclinH/Mat1 (setting [3]).

The values above are taken from US20230203031A1, “COMPOUNDS USEFUL FOR INHIBITING CDK7” (Eli Lilly and Company, priority 2020, published 2023).
